The source of these data is publication PMC8769072, “Proteome‐scale mapping of binding sites in the unstructured regions of the human proteome” (Molecular Systems Biology, 2022).

Where no end group is shown, it is not given here.

In assay [1] the target is T1, KPNA4 ARM (Homo sapiens, UniProt O00629).
T1 construct: O00629; KPNA4; Arm; 68; 487; pETM33/pETM41; Genescript; made in house; host or cells: bacteria (E. coli BL21(DE3) gold is named only for the phage-selection preparations)
In words: FP competition, KPNA4 ARM minor pocket (FITC-NCOR2 probe). It is filed as binding. The source says:
(§1) Like other importins, KPNA4 has two distinct NLS‐binding pockets on the surface of an armadillo (ARM) repeat fold (major pocket, ARM 2–4; minor pocket, ARM 6–8; Fig 5B) (Smith et al, [2018]). Bipartite NLSs are usually 17–19 amino acids long and engage both pockets. Monopartite NLSs are short basic stretches, divided into five classes (Kosugi et al, [2009]): class I KR[KR]R or K[KR]RK, class II [PR]xxKR[^DE][KR] (where ^ indicates “not”), class III KRx[WFY]xxAF, class IV [RP]xxKR[KR][^DE], and class V LGKR[KR][WFY]. The class I and class II motifs preferentially interact with the major pocket (Kosugi et al, [2009]). In contrast, class III and class IV NLSs preferentially bind to the minor pocket. Using KPNA4 as a bait against the HD2 P8 library we identified 33 peptides found in 32 proteins. Of the 26 proteins for which information was available, 22 proteins were annotated as having nuclear or nucleolar localization in the UniProt database. To gain additional information we combined the data generated for KPNA4 by screening against the complete P8 HD2 library, with the results generated using two relevant sublibraries (the cytoplasmic and nuclear, and nuclear sublibraries) resulting in a set of 92 peptides containing NLS‐like sequences found in 76 proteins. Using these peptides we could generate consensus motifs that matched four of the previously reported NLS classes (Fig 5A; class I‐IV). […] Three peptides bound only to the major pocket. Eight peptides with class III motif and one KRxH‐containing peptide only bound to the minor pocket. Five peptides outcompeted both probe peptides, which may be explained by the amino acid sequence matching both class II and class III motifs (e.g., 1135‐ PSPKRKL ‐1139 in ZNF532; Fig 5), and possibly by cross specificity of the two binding pockets.

In assay [2] the target is T1, KPNA4 ARM. In words: FP competition, KPNA4 ARM major pocket (FITC-Myc probe). It is filed as binding. The note with it: for IC50: FP competition with FITC-Myc320-328 probe for the major pocket, 50 mM KPO4 pH 7.5, n = 3 technical replicates; for Kd: Fig 5D, FP competition with FITC-Myc320-328, major groove, n = 3.
Source text: as §1

For a further assay, the target named is T2, TLN1 PTB (Homo sapiens, UniProt Q9Y490).
T2 construct: Q9Y490; TLN1; PTB; 309; pHH0103; Sidhu Lab (PMID: 33438817); made in house; host or cells: bacteria (E. coli BL21(DE3) gold is named only for the phage-selection preparations)
In words: FP competition, TLN1 PTB. It is filed as binding.

Assay [3] has as its system immobilized GST-tagged bait protein domains. In words: ProP-PD phage selections (HD2 P8, sublibraries, HD2 P3, HD1 P8) with NGS and confidence level. As to conditions: bait CRK_SH3_1_P46108_124_198; library HD2; benchmarking set of validated motif instances; TRUE = motif instance recovered in the ProP-PD selection. The assay is classed as binding, human.
The next assay concerns the target T3, KEAP1 Kelch (Homo sapiens, UniProt Q14145).
T3 construct: Q14145; KEAP1; Kelch; 321; 609; pETM33; Genescript; made in house; host or cells: bacteria (E. coli BL21(DE3) gold is named only for the phage-selection preparations)
In words: FP competition, KEAP1 Kelch. It is filed as binding.

The target of the next assay is T4, MDM2 SWIB (Homo sapiens, UniProt Q00987).
T4 construct: Q00987; MDM2; SWIB; 17; 125; pETM33; Genescript; His-GST (cleaved yes); made in house; host or cells: bacteria (E. coli BL21(DE3) gold is named only for the phage-selection preparations)
Description: FP competition, MDM2 SWIB. The assay is classed as binding.

For DHQFPAKRPRLSEPQG-NH2 [HJURP], the IC50 (as a rule, the point on the concentration scale where inhibition reaches its midpoint) was 170 µM at KPNA4 ARM [1] and 0.076 µM at KPNA4 ARM [2].

Consider DLIFTDSKLYIPLE-NH2 [TPTE], for which the IC50 at TLN1 PTB was found to be 15 µM.

Turning to DLKRRLDSITSSQSSA-NH2 [KDR], at KPNA4 ARM [1], the IC50 turned out to be 24 µM. At KPNA4 ARM [2], the IC50 stood at 22 µM and the affinity, expressed as Kd, was 14 µM.

In the case of EDSIEPPHKRLCLSSE-NH2 [DMTF1], on KPNA4 ARM [2], the IC50 worked out at 0.13 µM and the Kd (commonly the equilibrium constant for the complex coming apart) came out at 0.075 µM.

As to ELKRKLEQEQKLVEVL-NH2 [MKL2], at KPNA4 ARM [1], the IC50 was determined as 36 µM.

As for ERENPSKRSRIERDID-NH2 [CTDSPL2], the concentration for half-maximal inhibition (IC50) on KPNA4 ARM [2] turned out to be 1.9 µM.

In the case of FPTDERSWVYSPLHYS-NH2 [PIP5K1C], the IC50 at TLN1 PTB turned out to be 0.42 µM. The Ki (in general, a dissociation constant, usually derived from enzyme kinetics or from competition with a known ligand) at TLN1 PTB (Fig 3C, FP competition with FITC-PIP5K1C probe, triplicates) came to 0.066 µM.

For the substance GFDAVTGEFTGMPEQW-NH2 [PAK1], the motif_found entry in assay [3] is “FALSE”. Besides, on KEAP1 Kelch, the IC50 was determined as 44 µM.

Regarding GFEAQWAALENKSKQR [NUMB], the IC50 at MDM2 SWIB came to 130 µM.

GKKRTFDETVSTYVPL-NH2 [TPX2] showed an IC50 at KPNA4 ARM [1] of 0.41 µM. In addition, at KPNA4 ARM [1] (read-out: KD (Fig 5D)), the Kd was 0.047 µM.

Substance GVKRTYSEVYPGQQYL-NH2 [ZMIZ2] had an IC50 on KPNA4 ARM [1] of 0.43 µM.

IDPSTGERFPVTDAVN-NH2 [PLEC 4459-4474] came in with an IC50 at KEAP1 Kelch of 6.1 µM.

For the substance IPEKKQRLEEATTICL-NH2 [AFF2], the results for the IC50 on KPNA4 ARM [1] and on KPNA4 ARM [2] were 3800 µM and 2.3 µM, respectively.

Substance PFKRPHSTISDSSTSS-NH2 [PLEKHG4B] registered an IC50 at KPNA4 ARM [1] of 3.6 µM.

For PKRTYDMMEGRVGRAI-NH2 [NCOR2], the IC50 on KPNA4 ARM [1] worked out at 0.12 µM.

With SLAPVKRTYEQMEFPL-NH2 [ADNP], the IC50 at KPNA4 ARM [1] was determined as 1.3 µM.

STMKRKHDEIQRSLPV-NH2 [ZBED9]: the IC50 at KPNA4 ARM [1] turned out to be 2.4 µM.

Substance VEPETKRLKLAASEDH-NH2 [ZRANB3] displayed an IC50 on KPNA4 ARM [2] of 0.24 µM.

In turn, VGPLTPLWTYPATAAG-NH2 [NYAP1] yielded an IC50 on TLN1 PTB of 62 µM.

With YDPVTGEWKSLAKLPE-NH2 [KLHL24], the IC50 at KEAP1 Kelch came out at 80 µM.
